Experimental data as given in patent US9040261B2, “Compounds as L-cystine crystallization inhibitors and uses thereof” (NEW YORK UNIVERSITY, priority 2009, dated 2015).
Where a name gives a salt, the structure may show the parent alone. Marks after values point to notes of the source that are not given here.

Columns and labels:
[1] = Bulk crystallization of L-cystine in the presence of additives (mass yield); settings: for influence on L-cystine growth: polymers and proteins with proximal carboxylate and amine groups
Description: Alternately, the hexagonal crystals can be obtained by crystallization performed near neutral pH (Sa) The hexagonal form was crystallized from a supersaturated L-cystine solution prepared by adding 70 mg of L-cystine to 100 mL of deionized water (3 mM), and heating under reflux at 100° C. for 20 min with stirring to completely dissolve L-cystine. […] This concentration was used for bulk crystallization studies in the presence of additives so that a measurable amount of bulk crystals could be obtained in a reasonable time. The solution was then allowed to cool slowly with stirring for 75 min. 30 mL aliquots were transferred to separate glass containers, which were then sealed to prevent evaporation and exposure to airborne particulates and stored for 72 hours at room temperature without stirring. […] The crystals retrieved in this manner were used for AFM studies by mounting individual crystals according to the procedure described below.
Various proteins, poly-amino acids, and molecular mimics of L-cystine were examined as additives. The aforementioned procedure for hexagonal platelet crystallization was repeated. Following the 75 min cooling period, prior to any observable crystallization, the additive was added to the supersaturated L-cystine solution to the desired concentration. […] Crystallization without additive was performed in an identical manner for comparison using a control solution from the same batch. The mass yields of L-cystine crystals were obtained by dividing the mass of L-cystine crystals (collected from growth solution by filtration) by the mass of L-cystine added in the growth solution.
Additives chosen for these studies were various proteins, poly-amino acids, and molecular mimics of L-cystine (see Table 1). The above procedure for hexagonal platelet crystallization was repeated until completion of the 75 min cooling period, at which point 29.5 g of solution was transferred to a 100 mL beaker containing 0.5 g of separately prepared additive solution to yield net concentrations of 2 mg/L additive and 0.7 g/L L-cystine. Additive solutions were replaced with deionized water of equivalent volume for control measurements. […]
L-cystine bulk crystallization was investigated in the presence of various polymers, urinary constituents, fish antifreeze proteins (AFPs), and L-cystine derivatives (i.e. structural mimics of L-cystine), which were analyzed as possible growth inhibitors of hexagonal L-cystine. The potency of each additive was assessed by comparing the difference in crystal yield (Table 1), which is equal to the mass of crystals formed in the presence of 2 mg/L additive (isolated with […]) divided by the total mass of L-cystine (700 mg/L).

[2] = Crystal size and habit by optical microscopy and SEM after bulk crystallization with additive; settings: for L-cystine crystal habit in the presence of additive: hexagonal platelets without additive
Description: Various proteins, poly-amino acids, and molecular mimics of L-cystine were examined as additives. The aforementioned procedure for hexagonal platelet crystallization was repeated. Following the 75 min cooling period, prior to any observable crystallization, the additive was added to the supersaturated L-cystine solution to the desired concentration. The container was sealed and stored for 72 hours at room temperature without stirring, after which the precipitate was collected by vacuum filtration (Whatman Grade 1 filters, >11 μm pores) and were air dried prior to analysis. Crystallization without additive was performed in an identical manner for comparison using a control solution from the same batch. The mass yields of L-cystine crystals were obtained by dividing the mass of L-cystine crystals (collected from growth solution by filtration) by the mass of L-cystine added in the growth solution. The crystals were isolated with 11 μm-pore filters, which were regarded as sufficiently small for reliable capture of the crystals (optical micrographs reveal that the size of crystals was always greater than 50 μm
An Orion 3 Star pH meter (Thermo Electron Corp.) with Orion 9157BNMD probe was used to measure the pH of L-cystine solutions. Crystal morphology was measured with a Leitz ERGOLUZ optical microscope and a Hitachi 3500 scanning electron microscopy. A thin coating of gold (2 nm) was sputtered on SEM samples and images were acquired at low voltage (2-5 kV) to minimize sample melting. ^1H NMR spectra were recorded using a Bruker AVANCE 400 spectrometer and were routinely run using broadband decoupling. Chemical shifts (δ), expressed in ppm, are referenced to the corresponding residual nuclei in deuterated solvent (D2O). Powder X-ray diffraction (XRD) patterns of isolated crystals were acquired with a Panalytical XPert PRO MPD using a Bragg-Brentano geometry with fixed slits at power settings of 45 kV and 40 mA. A CuKa radiation (0.154 nm) source was used with a 1 degree fixed divergence slit (10 mm beam mask) for incident X-rays and a 1 degree anti-scatter slit Ni filter ( 1/16 degree receiving slit) for diffracted X-rays.

[3] = AFM step velocity and hillock imaging with L-cystine diesters under continuous flow; settings: 0.015 mM inhibitor, 2 mM L-cystine
Description: Atomic force microscopy was performed with a Digital Instruments (Santa Barbara, Calif.) Nanoscope Ma Multimode system. All measurements were performed in a cell designed to contain liquids for in situ imaging, including step velocity measurements. All measurements were performed in contact mode using Veeco NP_B Si3N4 tips on silicon nitride cantilevers with a spring constant of 0.12N/m (triangular, 196 μm length, 41 μm width). L-cystine crystals (hexagonal form) were transferred onto an AFM specimen disk coated with partially cured (1 hr) UV-curable optical cement (Type SK-9, EMS Acquisition Corp.) by gently pressing the disk against hexagonal platelets collected by filtration (Whatman Nuclepore membrane, 8 μm). The (001) faces of the hexagonal plates naturally aligned parallel with the specimen disk such that the velocity of the equivalent {100} steps could be measured readily by AFM. The partially cured polymer with the adhered crystals was cured completely by additional UV radiation (2 hrs) prior to analysis. The mounted L-cystine crystals were etched slightly by immersion in deionized water for 30 sec at 60° C. to remove amorphous deposits or impurities that may be present on the surface. Step velocities on the hexagonal L-cystine crystals were measured by AFM using a fluid cell containing an aqueous solution, supersaturated with L-cystine (2 mM), introduced to the cell via a syringe. Step velocities were determined by measuring the distance of the steps from a reference point, usually the dislocation core, in consecutive deflection images acquired at periodic intervals, ranging from 9-14 sec. Measurements were acquired under continuous flow of fresh solution in order to maintain constant supersaturation and additive concentration. […] The step velocities, which correspond to the crystal growth rates, were measured with and without inhibitor for each pair.

[4] = 2 mg/L additive, 0.7 g/L L-cystine (pH 6.8), no additive 80, approximate error ±8%
[5] = 10 mg/L L-cysteine methylester, 700 mg/L L-cystine

## O=C(O)CCSSCCC(=O)O [3,3′-Dithiodiproprionic acid, 3,3′-dithiodipropionic acid, reference compound]
[1]; [4]
  Yield (%) = (collected mass by filtration, >11 μm)/(total mass added) × 100%: 72%

## COC(=O)[C@@H](N)CSSC[C@H](N)C(=O)O [CME, L-Cystine Methyl Ester]
[1]; [4]
  Yield (%) = (collected mass by filtration, >11 μm)/(total mass added) × 100%: 92* %
[1]; bulk crystallization
  CME concentration needed for crystal growth inhibition similar to CDME: more than twice that of CDME
[2]
  needle volume less than hexagonal platelets: ~100 times
  L-cystine crystal habit in the presence of additive: tapered hexagonal crystals

## O=C(O)CC(O)(CC(=O)O)C(=O)O [Citrate, sodium citrate (dihydrate), reference compound]
[1]; pH 6.8
  Yield (%) = (collected mass by filtration, >11 μm)/(total mass added) × 100%: 74%

## CC(C)(SSC(C)(C)[C@@H](N)C(=O)O)[C@H](N)C(=O)O [D-penicillamine disulfide, reference compound]
[1]; [4]
  Yield (%) = (collected mass by filtration, >11 μm)/(total mass added) × 100%: 65%

## CCOC(=O)[C@@H](N)CSSC[C@H](N)C(=O)OCC [L-CDEE, Cystine Diethyl Ester]
[3]
  order of step roughening, corresponding to the trend in inhibition: L-CDME>L-CDEE>L-CDIE>L-CDTE

## CC(C)OC(=O)[C@@H](N)CSSC[C@H](N)C(=O)OC(C)C [L-CDIE, L-Cystine Di-Isopropyl Ester]
[3]
  order of step roughening, corresponding to the trend in inhibition: L-CDME>L-CDEE>L-CDIE>L-CDTE

## CC(C)(C)OC(=O)[C@@H](N)CSSC[C@H](N)C(=O)OC(C)(C)C [L-CDTE, Cystine Di-t-Butyl Ester]
[3]
  order of step roughening, corresponding to the trend in inhibition: L-CDME>L-CDEE>L-CDIE>L-CDTE

## COC(=O)[C@@H](N)CS.Cl [L-cysteine methyl ester, L-cysteine methyl ester hydrochloride, reference compound]
[1]; 10 mg/L additive, 0.7 g/L L-cystine, no additive 80±8%, hydrochloride
  Yield (%) = (collected mass by filtration, >11 μm)/(total mass added) × 100%: 32%
[2]; [5]
  needle length: < 50 μm
  needle width: < 5 μm
[2]
  L-cystine crystal habit in the presence of additive: needles

## N[C@@H](CS)C(=O)O [L-cysteine, reference compound]
[1]; 10 mg/L additive, 0.7 g/L L-cystine, no additive 80±8%
  Yield (%) = (collected mass by filtration, >11 μm)/(total mass added) × 100%: 91%
[1]; bulk crystallization, Table 1
  influence on mass yield: did not influence the yield
[2]
  L-cystine crystal habit in the presence of additive: Hexagonal L-cystine platelets

## CC(C)(C)SSC[C@H](N)C(=O)O [S-tert-butylmercapto-L-cystine, 5-tert-butylmercapto-L-cysteine, reference compound]
[1]; [4]
  Yield (%) = (collected mass by filtration, >11 μm)/(total mass added) × 100%: 45%

## Chondroitin sulfate
[1]; [4]
  Yield (%) = (collected mass by filtration, >11 μm)/(total mass added) × 100%: 64%

## Desialylated Tamm-Horsfall protein: native THP desialylated by treatment with neuraminidase (50% reduction of carbohydrate content)
[1]; [4]
  Yield (%) = (collected mass by filtration, >11 μm)/(total mass added) × 100%: 41%

## Osteopontin (bovine): Osteopontin, extracted and purified from bovine milk, contains 7 wt % Ca2+ ions
[1]; [4]
  Yield (%) = (collected mass by filtration, >11 μm)/(total mass added) × 100%: 52%
[1]; Table 1
  influence on L-cystine growth: negligible influence

## Poly-L-arginine [reference compound]
[1]; [4]
  Yield (%) = (collected mass by filtration, >11 μm)/(total mass added) × 100%: 34%

## Poly-L-aspartate [reference compound]
[1]; [4]
  Yield (%) = (collected mass by filtration, >11 μm)/(total mass added) × 100%: 44%

## Poly-L-glutamate [reference compound]
[1]; [4]
  Yield (%) = (collected mass by filtration, >11 μm)/(total mass added) × 100%: 56%
[1]; Table 1
  influence on L-cystine growth: negligible influence

## Poly-L-lysine [reference compound]
[1]; [4]
  Yield (%) = (collected mass by filtration, >11 μm)/(total mass added) × 100%: 64%
[1]; Table 1
  influence on L-cystine growth: negligible influence

## Tamm-Horsfall protein: Tamm-Horsfall protein obtained from a human sample with no history of kidney stone disease
[1]; [4]
  Yield (%) = (collected mass by filtration, >11 μm)/(total mass added) × 100%: 69%
[1]; Table 1
  influence on L-cystine growth: negligible influence

## Transferrin: apo-transferrin (human, >98%)
[1]; [4]
  Yield (%) = (collected mass by filtration, >11 μm)/(total mass added) × 100%: 56%
